Reference: patent publication US20260216342A1, “COMPOUNDS FOR NUCLEIC ACID CLEAVAGE” (priority 2023, published 2026)

How the values were obtained:
SARS-CoV-2 [1] = type: cell-based; conditions: Vero CCL-81, MOI 0.05, 24 h
[2] = tested on: RNA extracted from SARS-CoV-2; assay: Gel electrophoresis of SARS-CoV-2 RNA after degrader incubation; type: biochemical; conditions: 100 μM, 2 h at 37° C.; FIG. 5f
[3] = tested on: RNA 69-er corresponding to the coronaviral pseudoknot; type: biochemical; conditions: 1 mM, 3 h incubation at 37° C.
SARS-CoV-2 [4] = assay: Viral plaque-forming units by plaque assay; type: cell-based; conditions: supernatants of cultures treated with 6 mM for 24 h, vs vehicle control
SARS-CoV-2 [5] = assay: Virucidal activity on cell free virions; conditions: 6 μM, 1 h at 37° C., 1000 PFU, plaque assay
SARS-CoV-2 [6] = type: in vivo, K18-hACE2 transgenic mice; conditions: 10 mg/kg intranasally 1 hour pre-infection and 3 hours post-infection, day 5, plaque assay
G4-forming RNA oligomer = assay: Degradation of G4-forming RNA oligomer by non-covalent PDS-based degraders; type: biochemical; conditions: 200 μM, CuSO4/THPTA/NaAsc, 37° C. for 4 h, LC-MS; FIG. 15
Protocol: […]. The mixture was heated at 95° C. for 5 minutes, then kept on ice for 30 minutes. CuSO4 (final concentration 200 μM), THPTA (700 μM) and NaAsc (50 mM) were then added, alongside with CBX-PDS, PDS-deg6 or PDS-Amlmi (200 μM). The reaction mixture was incubated at 37° C. for 4 h, quenched with EDTA (final concentration 12 mM) and then kept at 4° C. The reaction mixtures were analysed by LC-MS.

E. coli ribosome = assay: In vitro degradation of E. coli ribosome (agarose gel); type: biochemical; conditions: 15 mM to 0.47 mM, 18 hours at 37° C.
Protocol: The degradation activity was measured in an in vitro assay, targeting the E. coli ribosome. 200 μM […] were incubated with degrader in different concentration, ranging from 15 mM to 0.47 mM, for 18 hours at 37° C. Evaluation was made by agarose gel analysis.

## CCOC(=O)c1ccccc1NC(=O)N1CCCN(Cc2csc(C)n2)CC1 [MTDB]
SARS-CoV-2 [1]; added before or after infection
  antiviral effect (coronaviral RNA in cells): did not exhibit an antiviral effect
SARS-CoV-2 [1]; drug added 1 h before or 1 h after infection
  50% inhibitory concentration (IC50): did not inhibit viral replication and thus IC50 values could not be determined
[2]
  degradation of full-length coronaviral RNA on agarose gel: the two control molecules do not
[3]
  degradation of RNA pseudoknot: no degradation
SARS-CoV-2 [4]
  number of viral plaques: only showed decreased number of viral plaques when added before infection
SARS-CoV-2 [5]
  virucidal effect on cell free virus: no virucidal effect was observed
SARS-CoV-2 [6]
  lung viral load: No differences in lung viral load

## CN(C)Cc1nccn1CCOCCOCCOCCOCCOCCn1cc(COc2cc(C(=O)Nc3cc(OCCN)c4ccccc4n3)nc(C(=O)Nc3cc(OCCN)c4ccccc4n3)c2)nn1 [PDS-Amimi]
G4-forming RNA oligomer
  degrader potency on G4-forming RNA oligomer: more potent degrader than PDS-deg6

## chloramphenicol-6PEG-imidazole degrader [18a]
E. coli ribosome
  ribosome degradation: no degradation visible

## chloramphenicol-ethyl-imidazole degrader [18c]
E. coli ribosome
  ribosome degradation: no degradation visible

## chloramphenicol-2PEG-imidazole degrader [18b]
E. coli ribosome
  ribosome degradation: ribosome degradation could be observed at a concentration of 15 mM

## O=C(N[C@H](CO)[C@H](O)c1ccc([N+](=O)[O-])cc1)C(Cl)Cl [chloramphenicol, Chloramphenicol]
E. coli ribosome
  ribosome degradation: no degradation
